From PubChem BioAssay AID248 (DTP/NCI, 2004)
Several values for one entry are separate records, joined by “and”; a condition that tells them apart may be missing. Equal values may be shown once. Toxic doses and inconclusive results are not listed. No stated cut-off is given here; in the data, active means T/C of 150% or more; inactive means T/C below 125%.

System: L1210 leukemia ip in BDF1 mice, survival T/C
Test: NCI In Vivo Anticancer Drug Screen. Data for tumor model L1210 Leukemia (intraperitoneal) in B6D2F1 (BDF1) mice
Details: endpoint: mean survival time, higher = longer survival
Procedure, shortened: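 Ratio derived from survival: compound-dosed mice over vehicle-dosed mice, all bearing a transplantable tumor.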

[1] = dose: 100.0 mg/kg/injection, schedule: Q04DX003 (ip), vehicle: Klucel (hydroxypropylcellulose) (HPC)
[2] = dose: 200.0 mg/kg/injection, schedule: Q04DX003 (ip), vehicle: Klucel (hydroxypropylcellulose) (HPC)
[3] = dose: 400.0 mg/kg/injection, schedule: Q04DX003 (ip), vehicle: Klucel (hydroxypropylcellulose) (HPC)
[4] = dose: 100.0 mg/kg/injection, schedule: Q01DX009 (ip), vehicle: saline with Tween-80
[5] = dose: 100.0 mg/kg/injection, schedule: Q04DX003 (ip), vehicle: saline with Tween-80
[6] = dose: 200.0 mg/kg/injection, schedule: Q04DX003 (ip), vehicle: saline with Tween-80
[7] = dose: 400.0 mg/kg/injection, schedule: Q04DX003 (ip), vehicle: saline with Tween-80
[8] = dose: 50.0 mg/kg/injection, schedule: Q01DX009 (ip), vehicle: saline
[9] = dose: 100.0 mg/kg/injection, schedule: Q01DX Z (ip), vehicle: methylcellulose (MC)
[10] = dose: 100.0 mg/kg/injection, schedule: Q01DX001 (ip), vehicle: saline
[11] = dose: 400.0 mg/kg/injection, schedule: Q01DX001 (ip), vehicle: saline
[12] = dose: 100.0 mg/kg/injection, schedule: Q01DX001 (ip), vehicle: saline with Tween-80
[13] = dose: 200.0 mg/kg/injection, schedule: Q01DX001 (ip), vehicle: saline
[14] = dose: 75.0 mg/kg/injection, schedule: Q01DX001 (ip), vehicle: saline
[15] = dose: 100.0 mg/kg/injection, schedule: Q01DX009 (ip), vehicle: Klucel (hydroxypropylcellulose) (HPC)
[16] = dose: 200.0 mg/kg/injection, schedule: Q01DX009 (ip), vehicle: Klucel (hydroxypropylcellulose) (HPC)
[17] = dose: 400.0 mg/kg/injection, schedule: Q01DX009 (ip), vehicle: Klucel (hydroxypropylcellulose) (HPC)
[18] = dose: 50.0 mg/kg/injection, schedule: Q01DX001 (ip), vehicle: carboxymethylcellulose (CMC)
[19] = dose: 100.0 mg/kg/injection, schedule: Q01DX001 (ip), vehicle: carboxymethylcellulose (CMC)
[20] = dose: 200.0 mg/kg/injection, schedule: Q01DX001 (ip), vehicle: carboxymethylcellulose (CMC)
[21] = dose: 400.0 mg/kg/injection, schedule: Q01DX001 (ip), vehicle: carboxymethylcellulose (CMC)

Measured: T/C

Cc1nonc1C
inactive: dose: 31.2 mg/kg/injection, schedule: Q01DX Z (ip), vehicle: other 100 % of control | dose: 62.5 mg/kg/injection, schedule: Q01DX Z (ip), vehicle: other 90 % of control | [1] 103 % of control | dose: 125.0 mg/kg/injection, schedule: Q01DX Z (ip), vehicle: other 88 % of control | [2] 98 % of control | dose: 250.0 mg/kg/injection, schedule: Q01DX Z (ip), vehicle: other 90 % of control | [3] 106 % of control

CC12CCC(O)(CC1)CC2(O)c1ccccc1 (stereo unspecified)
inactive: dose: 100.0 mg/kg/injection, schedule: Q04DX002 (ip), vehicle: saline 102 % of control | dose: 200.0 mg/kg/injection, schedule: Q04DX002 (ip), vehicle: saline 95 % of control | dose: 400.0 mg/kg/injection, schedule: Q04DX002 (ip), vehicle: saline 98 % of control

CCOC(=O)c1ccc(Cl)cc1
inactive: [4] 88 % of control | [1] 97 % of control | [2] 102 % of control | [3] 102 % of control

C[Si](C)(C)Oc1cccc(O[Si](C)(C)C)c1
inactive: [5] 95 % of control | [6] 96 % of control | [7] 93 % of control

Nc1ccc(C(=O)CCCN2CCCCC2)cc1
inactive: dose: 12.5 mg/kg/injection, schedule: Q01DX009 (ip), vehicle: saline 103 % of control | dose: 25.0 mg/kg/injection, schedule: Q01DX009 (ip), vehicle: saline 97 % of control | [8] 100 % of control

Clc1ccc(-c2cc(=[N+]3CCCCC3)ss2)cc1
inactive: [4] 100 % of control | [5] 104 % of control | [6] 94 % of control

Clc1ccc(Cl)c(Nc2ccnc(SCc3ccccc3)n2)c1
inactive: [9] 92 % of control | dose: 200.0 mg/kg/injection, schedule: Q01DX Z (ip), vehicle: methylcellulose (MC) 88 % of control

O=c1sc2ccccc2n1CCSCCn1c(=S)sc2ccccc21
inactive: [10] 90 % of control | [11] 93 % of control

CCCCNc1ncnc2c1ncn2C1OC(CO)C(O)C1O (stereo unspecified)
inactive: dose: 50.0 mg/kg/injection, schedule: Q01DX005 (ip), vehicle: saline 105 % of control

Nc1nc(N)nc(-c2ccc(Cl)cc2)n1
inactive: dose: 25.0 mg/kg/injection, schedule: Q01DX001 (ip), vehicle: saline with Tween-80 96 % of control | dose: 50.0 mg/kg/injection, schedule: Q01DX001 (ip), vehicle: saline with Tween-80 98 % of control | [12] 101 % of control

CC(C)CC(NC(=O)OCc1ccccc1)C(=O)NCCCCCCNCCCCCCNC(=O)C(CC(C)C)NC(=O)OCc1ccccc1 (stereo unspecified)
inactive: dose: 50.0 mg/kg/injection, schedule: Q01DX001 (ip), vehicle: saline 95 % of control | [13] 98 % of control

CCOC(=O)c1cnc(N)nc1
inactive: [1] 97 % of control | [2] 101 % of control | [3] 98 % of control

COC1C(O)C(CO)OC1n1ccc(N)nc1=O (stereo unspecified)
inactive: [10] 95 % of control | [13] 95 % of control | [11] 98 % of control

CCOP(=O)(NC=S)OCC
inactive: [14] 96 % of control

O=C(Nc1ccc(Cl)c([N+](=O)[O-])c1)Nc1nnc(Br)s1
inactive: [15] 104 % of control | [16] 90 % of control | [17] 97 % of control

CCCCCCCCCCCCCCCCC/C(CC)=N/Nc1ccc([N+](=O)[O-])cc1[N+](=O)[O-]
inactive: dose: 100.0 mg/kg/injection, schedule: Q01DX001 (ip), vehicle: Klucel (hydroxypropylcellulose) (HPC) 104 % of control | dose: 200.0 mg/kg/injection, schedule: Q01DX001 (ip), vehicle: Klucel (hydroxypropylcellulose) (HPC) 106 % of control | dose: 400.0 mg/kg/injection, schedule: Q01DX001 (ip), vehicle: Klucel (hydroxypropylcellulose) (HPC) 97 % of control

O=CC12C=CC(CC1)C1C(=O)OC(=O)C12 (stereo unspecified)
inactive: dose: 75.0 mg/kg/injection, schedule: Q01DX009 (ip), vehicle: saline 112 % of control | [10] 91 % of control | dose: 150.0 mg/kg/injection, schedule: Q01DX009 (ip), vehicle: saline 97 % of control | [13] 98 % of control | dose: 300.0 mg/kg/injection, schedule: Q01DX009 (ip), vehicle: saline 91 % of control | [11] 96 % of control

CCOC(=O)NNC(=O)CN
inactive: [14] 104 % of control

CN(C)c1ccc(CC2CCOC2=O)cc1 (stereo unspecified)
inactive: [18] 102 % of control | [19] 96 % of control | [20] 96 % of control | [21] 100 % of control

COc1cc(-c2cc(-c3ccccc3)c3cc(Cl)ccc3n2)cc(OC)c1OC
inactive: dose: 50.0 mg/kg/injection, schedule: Q01DX009 (ip), vehicle: Klucel (hydroxypropylcellulose) (HPC) 90 % of control | [15] 88 % of control | [16] 93 % of control

O=C1CC2CCCC(CCO)(C2)N1 (stereo unspecified)
inactive: [19] 91 % of control | [20] 94 % of control | [21] 103 % of control

Nc1nc(I)c2[nH]cnc2n1
inactive: dose: 25.0 mg/kg/injection, schedule: Q01DX Z (ip), vehicle: methylcellulose (MC) 95 % of control | dose: 50.0 mg/kg/injection, schedule: Q01DX Z (ip), vehicle: methylcellulose (MC) 103 % of control | [9] 108 % of control

COc1ccc(NC(=O)Nc2ccc(SC)cc2)c(Cl)c1
inactive: [15] 107 % of control | [16] 93 % of control | [17] 104 % of control

O=[N+]([O-])c1cccc(O)c1
inactive: [8] 99 % of control | dose: 100.0 mg/kg/injection, schedule: Q01DX009 (ip), vehicle: saline 92 % of control | dose: 100.0 mg/kg/injection, schedule: Q04DX003 (ip), vehicle: other 106 % of control | dose: 200.0 mg/kg/injection, schedule: Q01DX009 (ip), vehicle: saline 115 % of control | dose: 200.0 mg/kg/injection, schedule: Q04DX003 (ip), vehicle: other 112 % of control

Cn1c(=O)cc[nH]c1=O
inactive: [12] 95 % of control | dose: 200.0 mg/kg/injection, schedule: Q01DX001 (ip), vehicle: saline with Tween-80 98 % of control | dose: 400.0 mg/kg/injection, schedule: Q01DX001 (ip), vehicle: saline with Tween-80 106 % of control

Cc1ccc(C(C)C)c(OC(=O)Nc2ccc(S(=O)(=O)NC3CCCCC3)cc2)c1
inactive: [10] 94 % of control | [13] 96 % of control | [11] 94 % of control

O=c1c2c(oc3c(Cl)cc(Cl)cc13)CCCC2
inactive: dose: 50.0 mg/kg/injection, schedule: Q04DX002 (ip), vehicle: gum acacia 100 % of control | dose: 100.0 mg/kg/injection, schedule: Q04DX002 (ip), vehicle: gum acacia 104 % of control | dose: 200.0 mg/kg/injection, schedule: Q04DX002 (ip), vehicle: gum acacia 104 % of control

NNC(=O)CNc1cc(Cl)cc(Cl)c1
inactive: [19] 94 % of control | dose: 100.0 mg/kg/injection, schedule: Q01DX009 (ip), vehicle: carboxymethylcellulose (CMC) 92 % of control | dose: 100.0 mg/kg/injection, schedule: Q04DX002 (ip), vehicle: Klucel (hydroxypropylcellulose) (HPC) 91 % of control | dose: 100.0 mg/kg/injection, schedule: Q04DX002 (ip), vehicle: carboxymethylcellulose (CMC) 95 % of control and 100 % of control | dose: 100.0 mg/kg/injection, schedule: Q04DX003 (ip), vehicle: carboxymethylcellulose (CMC) 92 % of control | [20] 96 % of control | dose: 200.0 mg/kg/injection, schedule: Q01DX009 (ip), vehicle: carboxymethylcellulose (CMC) 88 % of control | dose: 200.0 mg/kg/injection, schedule: Q04DX002 (ip), vehicle: Klucel (hydroxypropylcellulose) (HPC) 109 % of control | dose: 200.0 mg/kg/injection, schedule: Q04DX002 (ip), vehicle: carboxymethylcellulose (CMC) 95 % of control and 104 % of control | dose: 200.0 mg/kg/injection, schedule: Q04DX003 (ip), vehicle: carboxymethylcellulose (CMC) 97 % of control | dose: 400.0 mg/kg/injection, schedule: Q04DX002 (ip), vehicle: carboxymethylcellulose (CMC) 98 % of control

O=C1C(Cl)=C(Nc2ccccc2Cl)C(=O)C(Cl)=C1Nc1ccccc1Cl
inactive: [18] 101 % of control | [19] 101 % of control | [5] 95 % of control | [20] 90 % of control | [6] 98 % of control | [21] 95 % of control | [7] 98 % of control
